Data from patent US4975374A (priority 1987, dated 1990).

Tests used:
E. coli transformants = assay: Fragment exchange: transformants selected for PPT resistance; assay type: cell-based
Description: (§1) Tables I and II show the results obtained.

wild-type GS (pCGS3) = target: T1, wild-type GS (pCGS3) (Medicago sativa, UniProt P04078); assay: Inhibition of GS activity by PPT, lysate of E. coli FDB213 containing pCGS3; assay type: biochemical, alfalfa; details: read-out: Relative GS Enzyme Activity
T1 construct: made in house; host or cells: E. coli FDB213 (glnA deletion), clarified lysate
T1 sequence (P04078 1-356): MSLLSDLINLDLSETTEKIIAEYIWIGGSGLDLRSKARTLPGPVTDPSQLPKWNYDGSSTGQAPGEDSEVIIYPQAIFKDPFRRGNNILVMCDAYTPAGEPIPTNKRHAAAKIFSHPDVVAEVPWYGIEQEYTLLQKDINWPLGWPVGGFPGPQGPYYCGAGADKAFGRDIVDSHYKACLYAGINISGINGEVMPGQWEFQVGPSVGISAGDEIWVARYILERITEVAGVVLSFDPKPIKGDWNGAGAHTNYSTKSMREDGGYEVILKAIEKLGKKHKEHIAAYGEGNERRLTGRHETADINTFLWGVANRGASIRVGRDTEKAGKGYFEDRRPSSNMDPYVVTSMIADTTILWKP
Protocol: (§2) The cells were collected by centrifugation at 5,000 r.p.m. (5° C.) for 5 min, resuspended in 1.0 ml 10mM Tris-HCl, pH 7.5, 1 mM EDTA, 5 mM beta-mercaptoethanol, and lysed by sonication.

[1] = target: T2, PPT resistant mutant GS (ser 245) (pCGS3-SER245) (Medicago sativa, UniProt P04078, G245S); assay: Inhibition of GS activity by PPT, lysate of E. coli FDB213 containing pCGS3-Ser245; assay type: biochemical, alfalfa; details: read-out: Relative GS Enzyme Activity
T2 construct: made in house; host or cells: E. coli FDB213 (glnA deletion), clarified lysate
Protocol: as §2

[2] = target: T3, PPT resistant mutant GS (lys 332) (pCGS3-LYS332) (Medicago sativa, UniProt P04078, R332K); assay: biochemical; parameters: species or system alfalfa; details: read-out: Relative GS Enzyme Activity
T3 construct: made in house; host or cells: E. coli FDB213 (glnA deletion), clarified lysate
Protocol: as §2

E. coli containing pCGS3 = assay: Replating on M9 with PPT, plasmid pCGS3; assay type: cell-based
Description: as §1

[3] = target: T4, pea leaf glutamine synthetase (Pisum sativum, UniProt P08281); details: mixed competitive inhibitor; cited from earlier work
T4 sequence (P08281 50-430): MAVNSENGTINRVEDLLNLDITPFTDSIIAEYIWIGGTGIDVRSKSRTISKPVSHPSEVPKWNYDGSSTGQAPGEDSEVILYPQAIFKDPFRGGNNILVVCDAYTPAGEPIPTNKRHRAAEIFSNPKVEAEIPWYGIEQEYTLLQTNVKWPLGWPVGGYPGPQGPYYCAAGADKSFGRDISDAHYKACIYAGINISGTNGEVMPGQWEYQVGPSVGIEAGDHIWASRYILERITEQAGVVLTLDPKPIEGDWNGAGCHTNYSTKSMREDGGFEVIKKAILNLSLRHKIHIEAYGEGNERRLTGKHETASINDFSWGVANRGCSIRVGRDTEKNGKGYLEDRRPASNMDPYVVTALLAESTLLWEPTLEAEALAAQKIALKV

T2 sequence (P04078 whole entry G245S): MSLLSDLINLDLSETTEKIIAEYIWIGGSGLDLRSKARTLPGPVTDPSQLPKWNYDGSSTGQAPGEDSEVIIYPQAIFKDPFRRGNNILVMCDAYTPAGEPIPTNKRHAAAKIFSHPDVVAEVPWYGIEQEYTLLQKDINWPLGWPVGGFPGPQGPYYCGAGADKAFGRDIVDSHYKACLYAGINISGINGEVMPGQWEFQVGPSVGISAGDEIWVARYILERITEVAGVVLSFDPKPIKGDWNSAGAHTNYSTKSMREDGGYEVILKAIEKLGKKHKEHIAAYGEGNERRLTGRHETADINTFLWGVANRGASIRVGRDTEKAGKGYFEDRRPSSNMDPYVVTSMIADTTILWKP
T3 sequence (P04078 whole entry R332K): as the sequence (P04078 whole entry G245S) above, with S245G, R332K counted along it

Compound: CP(=O)(O)CC[C@H](N)C(=O)O [L-PPT, L-phosphinothricin]
- NUMBER OF COLONIES M9 AMP + 3 mM L-PPT (E. coli transformants; 9: CCC pCGS3): 100
- NUMBER OF COLONIES M9 AMP + 3 mM L-PPT (E. coli transformants; 10: CCC pCGS3 PPT^r): > 1000
- NUMBER OF COLONIES M9 AMP + 3 mM L-PPT (E. coli transformants; ligation 2: insert PPT^r SalI-NcoI, vector SalI-NcoI): 8
- NUMBER OF COLONIES M9 AMP + 3 mM L-PPT (E. coli transformants; ligation 4: insert PPT^r NcoI-EcoRI, vector NcoI-EcoRI): 6
- NUMBER OF COLONIES M9 AMP + 3 mM L-PPT (E. coli transformants; ligation 6: insert PPT^r EcoRI-HindIII, vector EcoRI-HindIII): 300
- NUMBER OF COLONIES M9 AMP + 3 mM L-PPT (E. coli transformants; ligation 8: insert PPT^r HindIII-BamHI, vector HindIII-BamHI): 2

Compound: CP(=O)(O)CC[C@H](N)C(=O)O [PPT, phosphinothricin]
- remaining activity at 4 µM (wild-type GS (pCGS3); 4 uM PPT): 102%
- remaining activity at 25 µM (wild-type GS (pCGS3); 25 uM PPT): 95.7%
- remaining activity at 62.5 µM (wild-type GS (pCGS3); 62.5 uM PPT): 84%
- remaining activity at 125 µM (wild-type GS (pCGS3); 125 uM PPT): 68%
- remaining activity at 250 µM (wild-type GS (pCGS3); 250 uM PPT): 42.7%
- remaining activity at 2000 µM (wild-type GS (pCGS3); 2 mM PPT): 15%
- remaining activity at 20000 µM (wild-type GS (pCGS3); 20 mM PPT): 4.3%
- remaining activity at 4 µM [1]: 103%
- remaining activity at 25 µM [1]: 103%
- remaining activity at 62.5 µM [1]: 97.3%
- remaining activity at 125 µM [1]: 91.4%
- remaining activity at 250 µM [1]: 80.6%
- remaining activity at 2000 µM [1]: 30.7%
- remaining activity at 20000 µM [1]: 5.3%
- remaining activity at 4 µM [2]: 103%
- remaining activity at 25 µM [2]: 103%
- remaining activity at 62.5 µM [2]: 103%
- remaining activity at 125 µM [2]: 100%
- remaining activity at 250 µM [2]: 98.5%
- remaining activity at 2000 µM [2]: 78.2%
- remaining activity at 20000 µM [2]: 23.8%
- growth on replating (E. coli containing pCGS3; M9/6 mM PPT, from LB): 0
- growth on replating (E. coli containing pCGS3; M9/6 mM PPT, from M9): 0
- growth on replating (E. coli containing pCGS3; M9/12 mM PPT, from LB): 0
- growth on replating (E. coli containing pCGS3; M9/12 mM PPT, from M9): 0

Compound: CS(=N)(=O)CCC(N)C(=O)O (centres unmarked) [MSO, methione sulfoximine]
- Ki [3]: 160 µM
